Test results from patent publication US12227488B2, “Small molecule degraders of Helios and methods of use” (DANA-FARBER CANCER INSTITUTE, INC., priority 2018, dated 2025).

How the values were obtained:
CRBN and Helios (IKZF2) = molecular target: T1, CRBN and Helios (IKZF2) (Homo sapiens, UniProt Q96SW2+Q9UKS7); assay: TR-FRET dimerization assay (CRBN-IKZF2 ternary complex formation); format: binding; conditions: n=1
T1 construct: His (N); Strep (N)
How it was run: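 Compound-induced IKZF2 recruitment to CRBN was read as the 520/490 nm TR-FRET ratio after 15 min at rt. The mix held biotinylated IKZF2, BODIPY-labeled CRBN bound to DDB1 lacking the BPB propeller, tracer Tb-streptavidin and compound titrations; n=1, from ≥3 technical replicates per well.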

IKZF2 = assay: Cellular degradation assay, eGFP-IKZF2Δ fusion with mCherry reporter in Flp-In 293 cells; format: cell-based; conditions: 5 h incubation, n=1
How it was run: (§1)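 DC50,5 h derived by variable-slope nonlinear fit of the per-well ratio of GFP-positive to mCherry-positive cells, imaged after 5 h compound exposure at 0.5% DMSO.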

IKZF1 = molecular target: T2, IKZF1 (Homo sapiens, UniProt Q13422); assay: Cellular degradation assay, eGFP-IKZF1Δ fusion with mCherry reporter in Flp-In 293 cells; format: cell-based; conditions: 5 h incubation, n=1
T2 construct: expressed in transfected cells; host or cells: Flp-In 293
How it was run: as §1

SALL4 ZNF1-2 = molecular target: T3, SALL4 ZNF1-2 (Homo sapiens, UniProt Q96SW2+Q9UJQ4); assay: Cellular degradation assay, eGFP-SALL4 ZnF1-2 fusion with mCherry reporter in Flp-In 293 cells; format: cell-based; conditions: 5 h incubation, n=1
T3 construct: IKZF1Δ, IKZF2Δ, GSPT1 and SALL4 ZnF1-2 were subcloned; expressed in transfected cells; host or cells: Flp-In 293
Method: IKZF1Δ, IKZF2Δ, GSPT1 and SALL4 ZnF1-2 were subcloned into mammalian pcDNA5/FRT Vector (Ampicillin and Hygromycin B resistant) modified to contain MCS-eGFP-P2A-mCherry. Stable cell lines expressing eGFP-protein fusion and mCherry reporter were generated using Flp-In™ 293 system. Plasmid (0.3 μg) and pOG44 (4.7 μg) DNA were preincubated in 100 μL of Opti-MEM® I (Gibco®, Life Technologies™) media containing 0.05 mg/mL Lipofectamine® 2000 (Invitrogen™) for 20 min and added to Flp-In™ 293 cells containing 1.9 ml of DMEM media (Gibco®, Life Technologies™) per well in a 6-well plate format (Falcon, 353046). Cells were propagated after 48 h and transferred into a 10 cm^2 plate (Corning, 430165) in DMEM media containing 50 μg/mL of Hygromycin B (REF 10687010, Invitrogen™) as a selection marker. Following 2-3 passage cycle, FACS (FACSAria™ II, BD) was used to enrich for cells expressing eGFP and mCherry. Cells stably expressing the IKZF1Δ, IKZF2Δ, GSPT1 or SALL4 Znf1-2 GFP fusions with mCherry reporter were seeded at 30-50% confluency in 384-well plates with 50 μL FluoroBrite™ DMEM media (Thermo Fisher Scientific, A18967) containing 10% FBS per well a day before compound treatment. Compound titrations were dispensed using a D300e Digital Dispenser (HP), normalized to 0.5% DMSO, and incubated with cells for 5 hours. The assay plate was imaged immediately using an Acumen® High Content Imager (TTP Labtech) with 488 nm and 561 nm lasers in […] grid per well format.
The resulting images were analyzed using CellProfiler™. A series of image analysis steps (‘image analysis pipeline’) was constructed. First, the red and green channels were aligned and cropped to target the middle of each well (to avoid analysis of heavily clumped cells at the edges), and a background illumination function was calculated for both red and green channels of each well individually and subtracted to correct for illumination variations across the 384-well plate from various sources of error. An additional step was then applied to the green channel to suppress the analysis of large auto fluorescent artifacts and enhance the analysis of cell specific fluorescence by way of selecting for objects under a given size, 30 A.U., and with a given shape, speckles. mCherry-positive cells were then identified in the red channel filtering for objects between 8-60 pixels in diameter and using intensity to distinguish between clumped objects. The green channel was then segmented into GFP positive and negative areas and objects were labeled as GFP positive if at least 40% of it overlapped with a GFP positive area. The fraction of GFP-positive cells/mCherry-positive cells in each well was then calculated, and the green and red images were rescaled for visualization.

GSPT1 = GSPT1 (Homo sapiens, UniProt P15170+Q96SW2); assay: Cellular degradation assay, eGFP-GSPT1 fusion with mCherry reporter in Flp-In 293 cells; format: cell-based; set-up: expressed in transfected cells; host or cells: Flp-In 293; conditions: 5 h incubation, n=1
How it was run: as §1

[1] = compound concentration 6.6667E−05
[2] = compound concentration 6.6667E−06
[3] = compound concentration 6.6667E−07 (667 nM)
[4] = compound concentration 2.00E−05
[5] = compound concentration 2.00E−06
[6] = compound concentration 2.00E−07

T1 sequence (Q96SW2 whole entry): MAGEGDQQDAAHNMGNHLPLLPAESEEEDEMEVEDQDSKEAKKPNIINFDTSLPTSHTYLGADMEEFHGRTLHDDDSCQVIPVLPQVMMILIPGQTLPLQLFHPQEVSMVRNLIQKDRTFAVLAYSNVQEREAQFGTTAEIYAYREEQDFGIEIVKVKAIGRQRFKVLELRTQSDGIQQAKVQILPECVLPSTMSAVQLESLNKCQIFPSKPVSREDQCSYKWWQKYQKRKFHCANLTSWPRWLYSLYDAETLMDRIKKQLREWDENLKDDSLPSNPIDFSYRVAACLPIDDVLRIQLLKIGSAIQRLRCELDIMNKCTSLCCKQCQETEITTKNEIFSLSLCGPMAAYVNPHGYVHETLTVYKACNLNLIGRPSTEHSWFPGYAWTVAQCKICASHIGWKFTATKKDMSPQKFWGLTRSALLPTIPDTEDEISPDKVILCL
T1 sequence (Q9UKS7 whole entry): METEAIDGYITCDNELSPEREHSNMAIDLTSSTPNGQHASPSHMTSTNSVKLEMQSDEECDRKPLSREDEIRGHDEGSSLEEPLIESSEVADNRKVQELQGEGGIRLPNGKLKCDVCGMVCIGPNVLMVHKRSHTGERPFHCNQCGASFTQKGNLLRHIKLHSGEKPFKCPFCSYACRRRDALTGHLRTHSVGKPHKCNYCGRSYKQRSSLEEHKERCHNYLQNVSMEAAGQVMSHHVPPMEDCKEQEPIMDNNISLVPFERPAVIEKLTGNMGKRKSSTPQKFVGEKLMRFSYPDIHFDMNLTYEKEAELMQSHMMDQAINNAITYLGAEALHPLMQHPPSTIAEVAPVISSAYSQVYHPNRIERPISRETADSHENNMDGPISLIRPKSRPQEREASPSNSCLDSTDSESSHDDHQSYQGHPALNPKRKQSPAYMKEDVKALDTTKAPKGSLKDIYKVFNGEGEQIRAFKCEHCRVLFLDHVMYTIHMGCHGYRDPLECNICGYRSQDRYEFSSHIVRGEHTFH
T3 sequence (Q9UJQ4 378-438 limits assumed): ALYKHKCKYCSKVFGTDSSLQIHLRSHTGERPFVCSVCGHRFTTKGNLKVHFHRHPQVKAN
T3 sequence (Q96SW2 whole entry, the tested form may be a part): as the sequence (Q96SW2 whole entry) above
T3 sequence (Q16531 whole entry partner, the tested form may be a part): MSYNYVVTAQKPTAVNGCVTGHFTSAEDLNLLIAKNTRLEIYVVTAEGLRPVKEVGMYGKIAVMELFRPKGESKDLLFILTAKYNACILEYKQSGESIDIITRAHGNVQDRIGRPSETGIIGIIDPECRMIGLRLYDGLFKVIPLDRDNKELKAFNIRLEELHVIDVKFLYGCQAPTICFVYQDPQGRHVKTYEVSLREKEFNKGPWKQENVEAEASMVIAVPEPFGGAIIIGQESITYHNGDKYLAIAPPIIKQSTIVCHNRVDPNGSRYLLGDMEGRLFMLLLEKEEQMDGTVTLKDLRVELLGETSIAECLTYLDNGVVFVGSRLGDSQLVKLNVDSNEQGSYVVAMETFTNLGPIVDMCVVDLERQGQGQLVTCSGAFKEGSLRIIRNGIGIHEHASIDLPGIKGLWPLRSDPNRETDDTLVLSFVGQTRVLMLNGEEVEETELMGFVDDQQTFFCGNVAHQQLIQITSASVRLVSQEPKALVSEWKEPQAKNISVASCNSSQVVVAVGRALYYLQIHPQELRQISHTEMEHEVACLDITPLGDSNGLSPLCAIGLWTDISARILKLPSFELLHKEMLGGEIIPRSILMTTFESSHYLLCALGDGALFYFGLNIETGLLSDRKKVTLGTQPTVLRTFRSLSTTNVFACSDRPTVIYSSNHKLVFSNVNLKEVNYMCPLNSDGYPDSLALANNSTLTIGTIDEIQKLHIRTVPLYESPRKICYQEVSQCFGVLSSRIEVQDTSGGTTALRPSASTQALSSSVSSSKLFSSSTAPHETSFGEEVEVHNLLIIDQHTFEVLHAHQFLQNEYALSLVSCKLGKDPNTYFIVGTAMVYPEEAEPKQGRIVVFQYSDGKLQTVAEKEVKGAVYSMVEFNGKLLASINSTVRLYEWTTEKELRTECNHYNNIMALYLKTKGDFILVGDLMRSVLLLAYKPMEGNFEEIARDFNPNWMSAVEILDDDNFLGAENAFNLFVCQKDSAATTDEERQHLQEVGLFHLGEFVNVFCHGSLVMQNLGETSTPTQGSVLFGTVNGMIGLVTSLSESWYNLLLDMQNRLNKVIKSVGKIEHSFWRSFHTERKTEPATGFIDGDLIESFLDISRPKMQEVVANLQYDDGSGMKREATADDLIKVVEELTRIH
GSPT1, sequence (P15170 whole entry, the tested form may be a part): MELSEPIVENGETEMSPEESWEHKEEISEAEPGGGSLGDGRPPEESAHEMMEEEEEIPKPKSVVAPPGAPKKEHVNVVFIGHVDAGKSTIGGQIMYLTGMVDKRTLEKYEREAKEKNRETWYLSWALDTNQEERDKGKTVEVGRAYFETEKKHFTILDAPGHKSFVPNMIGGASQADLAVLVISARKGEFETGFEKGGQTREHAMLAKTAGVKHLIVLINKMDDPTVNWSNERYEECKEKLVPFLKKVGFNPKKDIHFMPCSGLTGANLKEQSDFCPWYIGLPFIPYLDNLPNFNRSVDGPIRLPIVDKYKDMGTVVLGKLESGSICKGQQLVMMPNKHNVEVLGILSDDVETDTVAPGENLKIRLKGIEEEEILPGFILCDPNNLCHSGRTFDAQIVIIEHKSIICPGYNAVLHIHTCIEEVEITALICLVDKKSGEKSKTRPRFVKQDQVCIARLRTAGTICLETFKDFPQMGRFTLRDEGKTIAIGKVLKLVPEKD
GSPT1, sequence (Q96SW2 whole entry, the tested form may be a part): as the sequence (Q96SW2 whole entry) above
GSPT1, sequence (Q16531 whole entry partner, the tested form may be a part): as the sequence (Q16531 whole entry partner, the tested form may be a part) above
T2 sequence (Q13422 83-213 isoform Q13422-7 limits assumed): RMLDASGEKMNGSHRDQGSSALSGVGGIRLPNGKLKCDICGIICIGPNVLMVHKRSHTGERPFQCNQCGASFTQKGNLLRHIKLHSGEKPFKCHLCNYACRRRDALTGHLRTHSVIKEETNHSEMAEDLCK
T2 sequence (Q96SW2 whole entry partner, the tested form may be a part): as the sequence (Q96SW2 whole entry) above
T2 sequence (Q16531 2-1140 partner limits assumed): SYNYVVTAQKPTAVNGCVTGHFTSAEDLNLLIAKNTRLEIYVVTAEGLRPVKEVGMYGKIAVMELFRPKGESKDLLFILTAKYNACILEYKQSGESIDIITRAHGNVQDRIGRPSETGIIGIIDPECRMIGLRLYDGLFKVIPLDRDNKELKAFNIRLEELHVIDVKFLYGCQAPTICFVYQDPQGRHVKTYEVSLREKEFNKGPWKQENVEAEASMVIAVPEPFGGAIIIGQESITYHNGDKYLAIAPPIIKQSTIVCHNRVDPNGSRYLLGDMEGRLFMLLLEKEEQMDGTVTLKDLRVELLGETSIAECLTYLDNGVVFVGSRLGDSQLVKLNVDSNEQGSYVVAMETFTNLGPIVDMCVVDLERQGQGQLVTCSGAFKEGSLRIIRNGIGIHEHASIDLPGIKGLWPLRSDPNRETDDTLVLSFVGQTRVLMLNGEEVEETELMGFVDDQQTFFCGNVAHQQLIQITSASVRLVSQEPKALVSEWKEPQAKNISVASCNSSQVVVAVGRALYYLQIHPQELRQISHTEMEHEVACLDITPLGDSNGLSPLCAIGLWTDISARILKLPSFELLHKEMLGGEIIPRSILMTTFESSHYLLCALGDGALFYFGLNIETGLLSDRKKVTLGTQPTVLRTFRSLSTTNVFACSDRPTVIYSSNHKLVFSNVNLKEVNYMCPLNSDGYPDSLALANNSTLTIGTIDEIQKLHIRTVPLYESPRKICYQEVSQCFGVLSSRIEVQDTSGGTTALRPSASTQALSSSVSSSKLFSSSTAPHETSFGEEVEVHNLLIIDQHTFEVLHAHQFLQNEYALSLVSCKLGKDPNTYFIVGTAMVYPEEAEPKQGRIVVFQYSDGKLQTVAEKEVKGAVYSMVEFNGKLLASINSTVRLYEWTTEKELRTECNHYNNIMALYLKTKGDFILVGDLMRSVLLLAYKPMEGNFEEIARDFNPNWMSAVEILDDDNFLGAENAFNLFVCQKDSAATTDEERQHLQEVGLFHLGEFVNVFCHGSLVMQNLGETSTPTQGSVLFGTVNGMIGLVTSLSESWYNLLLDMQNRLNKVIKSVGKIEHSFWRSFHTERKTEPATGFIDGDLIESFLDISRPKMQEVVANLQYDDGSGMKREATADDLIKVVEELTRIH

| SMILES | TR-FRET-IKZF2 (Normalized to CC-885) (CRBN and Helios (IKZF2); [1]) | TR-FRET-IKZF2 (Normalized to CC-885) (CRBN and Helios (IKZF2); [2]) | TR-FRET-IKZF2 (Normalized to CC-885) (CRBN and Helios (IKZF2); [3]) | IKZF2 GFP/RFP Relative Abundance (IKZF2; [4]) | IKZF2 GFP/RFP Relative Abundance (IKZF2; [5]) | IKZF2 GFP/RFP Relative Abundance (IKZF2; [6]) | IKZF1 GFP/RFP Relative Abundance (IKZF1; [4]) | IKZF1 GFP/RFP Relative Abundance (IKZF1; [5]) | IKZF1 GFP/RFP Relative Abundance (IKZF1; [6]) | SALL4 ZNF1-2 GFP/RFP Relative Abundance (SALL4 ZNF1-2; [4]) | SALL4 ZNF1-2 GFP/RFP Relative Abundance (SALL4 ZNF1-2; [5]) | SALL4 ZNF1-2 GFP/RFP Relative Abundance (SALL4 ZNF1-2; [6]) | GSPT1 GFP/RFP Relative Abundance (GSPT1; [4]) | GSPT1 GFP/RFP Relative Abundance (GSPT1; [5]) | GSPT1 GFP/RFP Relative Abundance (GSPT1; [6]) |
| --- | --- | --- | --- | --- | --- | --- | --- | --- | --- | --- | --- | --- | --- | --- | --- |
| COC(=O)CN(C)C1=CC(=O)N(C2CCC(=O)NC2=O)C1=O (stereo not drawn) [Compound 15, Methyl N-(1-(2,6-dioxopiperidin-3-yl)-2,5-dioxo-2,5-dihydro-1H-pyrrol-3-yl)-N-methylglycinate] | 0.050 | 0.039 | 0.025 | 1.024 | 1.036 | 1.028 | 1.041 | 1.032 | 0.996 | 0.912 | 0.910 | 1.047 | 1.009 | 1.036 | 1.043 |
| CCOC(=O)CNC1=CC(=O)N(C2CCC(=O)NC2=O)C1=O (stereo not drawn) [Compound 16, Ethyl (1-(2,6-dioxopiperidin-3-yl)-2,5-dioxo-2,5-dihydro-1H-pyrrol-3-yl)glycinate] | 0.032 | 0.028 | 0.018 | 0.987 | 1.015 | 1.006 | 1.070 | 1.011 | 1.053 | 1.001 | 1.007 | 1.013 | 0.978 | 0.876 | 1.006 |
| CCOC(=O)CN(C)C1=CC(=O)N(C2CCC(=O)NC2=O)C1=O (stereo not drawn) [Compound 17, Ethyl N-(1-(2,6-dioxopiperidin-3-yl)-2,5-dioxo-2,5-dihydro-1H-pyrrol-3-yl)-N-methylglycinate] | 0.043 | 0.032 | 0.015 | 1.006 | 0.996 | 1.037 | 1.020 | 1.018 | 1.025 | 0.897 | 0.912 | 0.895 | 0.942 | 1.001 | 0.795 |
| O=C1CCC(N2C(=O)C=C(Nc3nc[nH]n3)C2=O)C(=O)N1 (stereo not drawn) [Compound 18, 3-(3-((1H-1,2,4-triazol-3-yl)amino)-2,5-dioxo-2,5-dihydro-1H-pyrrol-1-yl)piperidine-2,6-dione] | 0.062 | 0.018 | 0.024 | 1.055 | 0.992 | 0.990 | 0.943 | 0.833 | 0.847 | 0.967 | 0.999 | 0.904 | 0.880 | 0.650 | 0.498 |
| O=C1CCC(N2C(=O)C=C(Nc3nccs3)C2=O)C(=O)N1 (stereo not drawn) [Compound 19, 3-(2,5-dioxo-3-(thiazol-2-ylamino)-2,5-dihydro-1H-pyrrol-1-yl)piperidine-2,6-dione] | 0.217 | 0.041 | 0.057 | 0.653 | 0.980 | 0.991 | 0.216 | 0.818 | 0.110 | 1.010 | 1.012 | 0.597 | 1.023 | 0.946 | 0.953 |
| COC(=O)c1n[nH]c(NC2=CC(=O)N(C3CCC(=O)NC3=O)C2=O)n1 (stereo not drawn) [Compound 20, Methyl 5-((1-(2,6-dioxopiperidin-3-yl)-2,5-dioxo-2,5-dihydro-1H-pyrrol-3-yl)amino)-1H-1,2,4-triazole-3-carboxylate] | 0.050 | 0.017 | 0.014 | 0.952 | 0.987 | 1.025 | 0.721 | 0.895 | 0.342 | 0.894 | 0.908 | 0.892 | 0.901 | 1.036 | 1.069 |
| O=C(O)CCCNC1=CC(=O)N(C2CCC(=O)NC2=O)C1=O (stereo not drawn) [Compound 21, 4-((1-(2,6-dioxopiperidin-3-yl)-2,5-dioxo-2,5-dihydro-1H-pyrrol-3-yl)amino)butanoic acid] | 0.047 | 0.019 | 0.012 | 0.996 | 0.951 | 0.946 | 0.842 | 0.975 | 0.998 | 0.937 | 0.921 | 0.957 | 0.693 | 0.938 | 0.909 |
| O=C(O)CCCCNC1=CC(=O)N(C2CCC(=O)NC2=O)C1=O (stereo not drawn) [Compound 22, 5-((1-(2,6-dioxopiperidin-3-yl)-2,5-dioxo-2,5-dihydro-1H-pyrrol-3-yl)amino)pentanoic acid] | 0.055 | 0.032 | 0.018 | 1.001 | 0.982 | 0.935 | 0.984 | 1.028 | 0.939 | 0.953 | 0.962 | 1.044 | 1.058 | 0.883 | 0.745 |
